Source: patent US20250346550A1, “METHODS OF MODULATING ENDONUCLEASE G USING RESVERATROL AND ITS DERIVATIVES” (THE REGENTS OF THE UNIVERSITY OF COLORADO A BODY CORPORATE, priority 2022, published 2025)

Legend:
Format in all cases: in vivo, C. elegans
[1] = test system: cps-6(tm3222); baIn11 animals; experiment: DA neuronal death in cps-6(tm3222); baIn11 animals; settings: 100 μM, adult day 2
From the text: FIG. 8. […] In each experiment, 300 animals were scored to determine the percentage of animals losing at least one dopaminergic neuron in the head. Data are mean±s.e.m. *P<0.05; ***P<0.001, two-sided, unpaired t-test.
In addition to PME and apoptosis, EndoG was previously shown to play an important role in mediating dopaminergic (DA) neuronal death induced by expression of human α-synuclein, which is widely considered to be a major proponent of Parkinson's disease. However, the mechanism by which EndoG mediates α-synuclein-induced neurodegeneration is unclear. In a C. elegans α-synuclein-based Parkinson's Disease model, co-expression of GFP and human α-synuclein in C. elegans dopaminergic neurons under the control of the promoter of the dat-1 gene, which encodes a dopamine transporter, from an integrated transgene baIn11 (Pdat-1::gfp/Pdat-1::α-synuclein) caused DA neuronal death in 30% of adult baIn11 animals (FIG. 8a). The cps-6(tm3222) mutation blocked DA neuronal death in adult baIn11 animals (FIG. 8a), confirming that CPS-6 is important for α-synuclein-induced DA neuronal death.

[2] = test system: PME defect of lgg-1(bp523) embryos (autophagy pathway); experiment: PME microscopy assay in lgg-1(bp523) crosses; settings: 50 μM, 64-cell embryos (FIG. 3c)
Experimental: The numbers of MTR-stained paternal mitochondrial clusters in embryos at 64-cell (a) or 16-cell (b) stage from the indicated crosses were scored. N2 males or hermaphrodites were pretreated with 0.25% ethanol (Mock), 50 μM cis-resveratrol (a), or 50 μM trans-resveratrol (b) as indicated before mating. c-g, Quantification of MTR-stained paternal mitochondrial clusters in 64-cell embryos from the indicated crosses treated with 0.25% ethanol (Mock), 50 μM cis-resveratrol, and 50 μM trans-resveratrol, respectively. Alleles used are lgg-1(bp523), cps-6(tm3222) and rad-23(tm2595).
The numbers of MTR-stained paternal mitochondrial clusters were scored as in FIG. 1a. cps-6(tm3222) and lgg-1(bp523) alleles were used in the assays. Data are mean±s.e.m. n=20 embryos (b) and 15 embryos (c) in each experiment. **P<0.01; ***P<0.001; n.s., not significant, two-sided, unpaired t-test.
To investigate how these six compounds might affect PME, the present inventors performed chemical genetic analysis to analyze the PME pathways that might be affected by the compounds. The present inventors first examined whether they might affect the paternal PME pathway mediated by the mitochondrial endonuclease CPS-6, whose activity is inhibited by oxidation and protected by reducing agents.

[3] = test system: germline tumor in daf-16(mu86); cki-2(ok2105); glp-1(ar202) mutant (ET507); experiment: germline tumor model (ET507); settings: 200 μM, ET507 animals at 20° C.; for tumor size: adult day 5, vs 1% ethanol; for tumor occurring frequency: vs 1% ethanol
Experimental: FIG. 9. Cis-resveratrol inhibits and trans-resveratrol promotes germline tumor formation. Tumor size and tumor occurring frequency of the daf-16(mu86); cki-2(0k2105); glp-1 (ar202) mutant grown at 20° C. and treated with 1% ethanol (Mock), 200 μM cis-resveratrol (Cis), and 200 μM trans-resveratrol (Trans), respectively, are shown. Tumor assays were performed in triplicate with 100 animals per replicate. a, A five-stage classification was created to measure the tumor size in adult day 5 animals under the Normaski optic. Score 1 denotes the normal gonads seen in wild-type animals. Score 5 denotes enlarged gonads full of mitotic germ cells and without any egg or oocyte. Score 2-4 denote partially enlarged gonads. b, Tumor frequency indicates the percentage of animals with enlarged gonads (score 5). Data from three independent biological replicates are shown as mean±SEM. *P<0.05; **P<0.01; ***P<0.001, two-sided, unpaired t-test.
FIG. 14. stabilized cis-resveratrol inhibits germline tumor formation as well as cis-resveratrol. Tumor occurring frequency of the daf-16 (mu86); cki-2 (0k2105); glp-1 (ar202) mutant (ET507) grown at 20° C. and treated with 0.25% ethanol (Mock), 100 μM cis-resveratrol, and 100 μM Stabilized cis-resveratrol, respectively, are shown. Tumor assays were performed in triplicate with 100 animals per replicate. Data are mean±s.e.m. ****P<0.001, two-sided, unpaired t-test
The present inventors tested whether resveratrol isomers affect tumorigenesis in a C. elegans germline tumor model (ET507), in which three cell growth genes, daf-16, cki-2, and glp-1, are mutated, leading to uncontrolled germ cell proliferation and germline tumor.

[4] = test system: LGG-1 autophagosome enclosure of MTR-stained paternal mitochondria in zygotes; experiment: autophagosome formation on paternal mitochondria (SIM, anti-LGG-1); settings: males pretreated with 50 μM; for isolated paternal mitochondria: mock 16%; for paternal mitochondria fully enclosed by autophagosomes: mock 49%
Experimental: FIG. 4. Resveratrol isomers affect autophagosome formation on paternal mitochondria. a-f, Analysis of enclosure of MTR-stained paternal mitochondria by LGG-1 autophagosomes. Zygotes from the indicated crosses with MTR-stained N2 males pretreated with 0.25% ethanol (Mock)(a,b), 50 μM trans-resveratrol (c,d), or 50 μM cis-resveratrol (e,f) were labeled with an antibody to LGG-1. Images were acquired with a Nikon SIM microscope. Dashed rectangles highlight the areas enlarged and shown below ([…]). Scale bars, 2 μm (a,c,e), 0.5 μm (b,d,f). g, Quantification of four types of paternal mitochondria in zygotes that were fully enclosed, partially enclosed, and not enclosed (isolated) by the LGG-1 autophagosomes and that had initiating phagophore, respectively. The number of MTR-stained paternal mitochondria scored in each experiment was shown below the pie chart.
CPS-6 plays a key role in promoting internal breakdown of paternal mitochondria and rapid autophagosome formation on damaged paternal mitochondria following fertilization, which leads to their subsequent degradation by autophagy. We tested if resveratrol isomers affect autophagosome formation on paternal mitochondria using superresolution structured illumination microscopy (SIM). In zygotes from mating of MTR-stained and mock-treated N2 males with unstained N2 hermaphrodites, close to one half (49%) of MTR-stained paternal mitochondria were fully enclosed by autophagosomes labeled by anti-LGG-1 monoclonal antibody (FIG. 4a, b and g). The remaining paternal mitochondria either were partially enclosed by autophagosomes (23%), or had adjacent autophagosome membrane that could initiate the elongation process along the paternal mitochondrion (12%; initiating phagophore), or were isolated (16%) with no nearby autophagosome or phagophore (FIG. 4a, b and g). In zygotes from mating of MTR-stained and trans-resveratrol-treated N2 males with N2 hermaphrodites, autophagosome formation on paternal mitochondria increased dramatically, with 75% of paternal mitochondria fully enclosed and 12% of paternal mitochondria partially enclosed by autophagosomes (FIG. 4c, d and g). […] On the other hand, in zygotes from mating between unstained N2 hermaphrodites and MTR-stained and cis-resveratrol-treated N2 males, autophagosome formation on paternal mitochondria decreased substantially.

| SMILES | dopaminergic neuronal loss in cps-6(tm3222); baIn11 animals [1] | effect on PME defects of the lgg-1(bp523) mutant [2] | tumor size [3] | tumor occurring frequency [3] | isolated paternal mitochondria [4] [%] | paternal mitochondria fully enclosed by autophagosomes [4] [%] | paternal mitochondria partially enclosed by autophagosomes ([4]; mock 23%) [%] |
| --- | --- | --- | --- | --- | --- | --- | --- |
| Oc1ccc(/C=C\c2cc(O)cc(O)c2)cc1 [cis-resveratrol] | did not cause any dopaminergic neuronal loss | enhanced | reduces | reduces | 31 | 35 | – |
| Oc1ccc(/C=C/c2cc(O)cc(O)c2)cc1 [trans-resveratrol, 3,5,4′-trihydroxy-trans-stilbene] | did not cause any dopaminergic neuronal loss | suppressed | increases | increases | 7 | 75 | 12 |
